Assay results published in article PMC4618944, “Congo Red Interactions with Curli-Producing E. coli and Native Curli Amyloid Fibers” (PLoS ONE, 2015).

Target: T1, curli (CsgA amyloid fibers) (Escherichia coli, UniProt P28307)
T1 construct: native curli fibers isolated from MC4100, mature CsgA polymer (sec signal removed; native fibers may contain minor nucleator CsgB); immobilized by amine coupling for SPR
Assay: surface plasmon resonance (Biacore […]), curli immobilized on CM5 chip
Type: binding

T1 sequence (P28307 21-151): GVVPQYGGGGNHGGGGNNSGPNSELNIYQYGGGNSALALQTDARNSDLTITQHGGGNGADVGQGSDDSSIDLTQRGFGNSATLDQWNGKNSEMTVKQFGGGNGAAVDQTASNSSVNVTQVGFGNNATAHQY

Compound: Nc1c(/N=N/c2ccc(-c3ccc(/N=N/c4cc(S(=O)(=O)O)c5ccccc5c4N)cc3)cc2)cc(S(=O)(=O)O)c2ccccc12 [CR, Congo red]
- Kd: 2800 nM
